Assay results from patent US8952024B2, “Herbicidal pyrimidone derivatives” (E I du Pont de Nemours and Company, priority 2009, dated 2015).

Tested on: Russian thistle (Salsola iberica)
Test: Test F combination of compound 2 with bromoxynil, postemergence
Type: in vivo
Conditions: 15 days, mean of three replicates, scale 0 to 100
Procedure: Test F evaluated the effect of combining compound 2 with bromoxynil. The test species for this experiment was Russian thistle (Salsola iberica), which was prepared by sowing seeds into a blend of loam soil and sand. Test chemicals were formulated in a non-phytotoxic solvent mixture that included a surfactant and applied postemergence to plants ranging in height from 12 to 20 cm. […] Treatments consisted of Compound 2, bromoxynil, or their combination, using a spray volume of 457 L/ha. Each treatment was replicated three times. Treated plants and untreated controls were maintained in a greenhouse for 15 days, after which time all plants were visually evaluated and compared to the untreated controls. […] Colby's Equation was used to determine the herbicidal effects expected from the mixtures. Colby's Equation (Colby, S.

N#Cc1cc(Br)c(O)c(Br)c1 [bromoxynil, reference compound]
Russian Thistle Obsd. (observed effect) (Bromoxynil 70 g a.i./ha alone): 8 | Russian Thistle Obsd. (observed effect) (Bromoxynil 140 g a.i./ha alone): 13
